Publication PMC7999702, “Bioactive Bromotyrosine Derivatives from the Pacific Marine Sponge Suberea clavata (Pulitzer-Finali, 1982)” (Marine Drugs, 2021)
In brackets after ≈: the same amount, converted by molar mass. Where two headings read alike, the source gives them in different places.

Key:
[1] = test system: Roseobacter littoralis; assay: Antibacterial bioassay, inhibition of bacterial growth (MIC); format: cell-based, Roseobacter littoralis (ATCC 495666); conditions: 48 h; for MIC: read-out: MIC Roseobacter littoralis
Protocol: (§1) Preparation of the compounds: antifouling efficiency of the compounds was assessed towards the inhibition of growth of key bacteria involved in marine and terrestrial surface colonisation. All bioassays were run in six replicates and using two batches of organisms. Compounds were tested at 0.01, 0.1, and 1 µg/mL. 96 well-plates were used and were coated with the compounds. Methanol was used as a carrier solvent and after its evaporation plates were sterilized under UV exposure for 30 min [41].
(§2) Seven strains of marine bacteria i.e., Halomonas aquamarina (ATCC 14400), Polaribacter irgensii (ATCC 700398), Shewanella putrefaciens (ATCC 8071), Roseobacter littoralis (ATCC 495666), Pseudoalteromonas elyakovii (ATCC 700519), Vibrio aestuarianus (ATCC 35048), Vibrio natriegens (ATCC 14058), and three strains of terrestrial bacteria, i.e., Escherichia coli (ATCC 11775), Staphylococcus aureus (ATCC 126000), and Pseudomonas aeruginosa (ATCC 16145) were used to assess the antibacterial potency of the compounds.
(§3) Inhibition of bacterial growth: experiments were run as previously described by Maréchal et al.. 96-well plates containing the compounds were inoculated with the bacteria (2 × 10^8 cells/mL) in LB medium ([…], Sigma, Andover, UK), (supplemented with NaCl (35 g/L) for marine strains), at 30 °C for 48 h. After incubation, the intensity of growth in the presence of the tested compounds and control (media only) was assessed by measurement of the OD 620 nm using a spectrophotometer (Apollo LB912, Berthold Technologies). Results are expressed as minimum inhibitory concentrations (MIC values).

[2] = target: T1, DNMT1 (Homo sapiens, UniProt P26358); assay: In vitro DNMT1 activity inhibition assay; format: biochemical; conditions: compounds at 50 µM, 25 ng purified DNMT1, 2 h, 37 °C, three independent experiments
T1 construct: purchased Active Motif
T1 sequence (P26358 whole entry): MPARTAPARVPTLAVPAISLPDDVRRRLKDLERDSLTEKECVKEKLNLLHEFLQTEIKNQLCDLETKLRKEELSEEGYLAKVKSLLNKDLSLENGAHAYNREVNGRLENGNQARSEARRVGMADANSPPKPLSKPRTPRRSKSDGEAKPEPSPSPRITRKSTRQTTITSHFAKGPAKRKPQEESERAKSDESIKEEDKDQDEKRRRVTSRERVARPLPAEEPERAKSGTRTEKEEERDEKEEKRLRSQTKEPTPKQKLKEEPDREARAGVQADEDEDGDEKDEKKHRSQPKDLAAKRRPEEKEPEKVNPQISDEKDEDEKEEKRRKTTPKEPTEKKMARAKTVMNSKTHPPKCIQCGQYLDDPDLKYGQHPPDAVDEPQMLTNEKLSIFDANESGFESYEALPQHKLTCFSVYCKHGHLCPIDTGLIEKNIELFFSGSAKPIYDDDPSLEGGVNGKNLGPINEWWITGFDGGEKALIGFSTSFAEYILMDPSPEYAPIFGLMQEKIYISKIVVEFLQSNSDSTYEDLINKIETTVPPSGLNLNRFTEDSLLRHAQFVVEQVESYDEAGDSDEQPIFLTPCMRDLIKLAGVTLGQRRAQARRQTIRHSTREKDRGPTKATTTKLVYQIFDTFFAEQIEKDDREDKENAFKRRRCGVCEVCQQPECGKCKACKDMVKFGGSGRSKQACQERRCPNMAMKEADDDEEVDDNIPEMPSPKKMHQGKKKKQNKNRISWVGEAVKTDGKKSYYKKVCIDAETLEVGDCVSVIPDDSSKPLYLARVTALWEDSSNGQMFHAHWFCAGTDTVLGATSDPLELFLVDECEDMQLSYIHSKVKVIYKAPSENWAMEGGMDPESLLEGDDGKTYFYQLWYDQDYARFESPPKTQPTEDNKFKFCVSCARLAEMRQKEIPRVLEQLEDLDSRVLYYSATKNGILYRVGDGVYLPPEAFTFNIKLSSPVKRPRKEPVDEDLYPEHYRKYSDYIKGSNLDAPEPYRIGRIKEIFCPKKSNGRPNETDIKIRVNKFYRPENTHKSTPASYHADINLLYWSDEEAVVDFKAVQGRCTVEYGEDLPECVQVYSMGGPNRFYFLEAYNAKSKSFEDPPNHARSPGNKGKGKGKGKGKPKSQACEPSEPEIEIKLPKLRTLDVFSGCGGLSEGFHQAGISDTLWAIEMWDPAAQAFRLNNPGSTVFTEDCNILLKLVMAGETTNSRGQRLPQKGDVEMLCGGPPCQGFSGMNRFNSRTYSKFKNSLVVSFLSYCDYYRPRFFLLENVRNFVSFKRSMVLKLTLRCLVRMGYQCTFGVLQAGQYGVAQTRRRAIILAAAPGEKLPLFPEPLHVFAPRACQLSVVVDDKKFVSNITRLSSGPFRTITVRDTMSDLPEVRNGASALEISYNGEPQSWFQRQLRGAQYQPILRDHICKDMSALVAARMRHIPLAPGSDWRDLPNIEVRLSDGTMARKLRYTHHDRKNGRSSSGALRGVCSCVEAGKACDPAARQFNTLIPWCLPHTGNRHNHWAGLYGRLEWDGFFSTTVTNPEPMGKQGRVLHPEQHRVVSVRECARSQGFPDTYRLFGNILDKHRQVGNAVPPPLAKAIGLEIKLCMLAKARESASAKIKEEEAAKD
Protocol: DNMT1 activity was measured using in vitro DNMT activity/inhibition assay (Active Motif, Rixensart, Belgium) according to manufacturer’s instructions. All compounds were used at a final 50 µM concentration. The methylation reaction was performed by incubating 25 ng of purified DNMT1 with compounds for 2 h at 37 °C in the presence of 0.01% Triton X-100. The methylated DNA was then recognized by the His-tagged methyl-CpG binding domain protein 2b. The addition of a poly-histidine antibody conjugated to horseradish peroxidase provided a colorimetric readout quantified with a spectrophotometer (SpectraCount, Packard) at the wavelength of 450 nm. Data of DNMT1 activity are reported as percentage of control.

[3] = test system: Vibrio aesturianus; assay: Antibacterial bioassay, inhibition of bacterial growth (MIC); format: cell-based, Vibrio aestuarianus (ATCC 35048); conditions: for MIC: Vibrio
Protocol: as §1, §2, §3

[4] = test system: Halomonas aquamarina; assay: as above; format: cell-based, Halomonas aquamarina (ATCC 14400); conditions: for MIC Halomonas aquamarina / MIC: 48 h; for MIC toward Halomonas aquamarina: the lowest concentration tested; for MIC: Vreelandella aquamarina, read-out: MIC Halomonas aquamarina
Protocol: as §1, §2, §3

[5] = test system: Escherichia coli; assay: as above; format: cell-based, Escherichia coli (ATCC 11775); conditions: for MIC: Escherichia coli
Protocol: as §1, §2, §3

[6] = target: T2, Acetylcholinesterase from Electrophorus electricus (Electrophorus electricus, UniProt O42275); assay: biochemical; format: biochemical
T2 construct: purchased Sigma-Aldrich
T2 sequence (O42275 24-633): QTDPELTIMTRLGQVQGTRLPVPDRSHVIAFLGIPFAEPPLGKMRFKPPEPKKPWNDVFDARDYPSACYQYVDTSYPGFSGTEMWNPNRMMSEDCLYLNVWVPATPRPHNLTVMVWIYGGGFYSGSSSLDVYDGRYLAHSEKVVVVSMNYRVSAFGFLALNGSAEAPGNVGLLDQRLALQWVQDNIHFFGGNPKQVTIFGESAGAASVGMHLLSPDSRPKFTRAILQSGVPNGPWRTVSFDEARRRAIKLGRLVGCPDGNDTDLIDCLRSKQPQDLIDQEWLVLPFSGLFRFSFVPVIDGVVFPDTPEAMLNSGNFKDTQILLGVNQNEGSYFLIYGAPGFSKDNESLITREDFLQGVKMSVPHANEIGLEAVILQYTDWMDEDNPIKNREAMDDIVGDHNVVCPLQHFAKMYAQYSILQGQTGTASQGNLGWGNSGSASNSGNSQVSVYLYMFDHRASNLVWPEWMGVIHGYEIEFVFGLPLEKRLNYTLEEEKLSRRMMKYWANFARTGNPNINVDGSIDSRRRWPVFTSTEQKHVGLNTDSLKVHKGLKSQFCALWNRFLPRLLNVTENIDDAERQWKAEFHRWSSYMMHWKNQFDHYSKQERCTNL
Protocol: This bioassay was set up after Ellman. This method is the most commonly used to screen compounds against this target. All reagents, buffers, and salts were purchased from Sigma-Aldrich (Saint-Louis, MO, USA). Two buffer solutions were prepared extemporaneously: buffer A (50 mM Tris-HCl pH 8 + 0.1% BSA); and buffer B (50 mM Tris-HCl pH 8 + 0.1 M NaCl + 0.02 M MgCl2.6H2O). Acetylcholinesterase from Electrophorus electricus (EC 3.1.1.7, AChE−0.2 U/mL) was dissolved in buffer A, 5,5′-dithiobis-2-nitrobenzoic acid (DTNB-Ellman’s reagent−3 mM) in buffer B, and acetylthiocholine iodide (ACTI−6 mM) in H2O. Tested compounds were dissolved in DMSO at 10 mg/mL, stored at −20 °C, and subsequently 100 times diluted in H2O before the assay. 10 μL AChE was preincubated for 10 min with 70 μL DTNB and 10 μL compounds solution in 96-well microplates. The enzymatic reaction was initiated with the addition of 10 μL ACTI, a synthetic substrate of AChE. After 30 min at 25 °C, absorbance of the plate was measured at 405 nm using a microplate reader (Tecan Infinite M200). Percentage of inhibition was calculated using the following equation: 100 × (Acontrol − Asample)/(Acontrol − A0), where Acontrol is the average absorbance of the wells in which tested compounds were replaced by water, Asample is the absorbance of the well with tested compound, and A0 the average absorbance of blank wells where AChE was omitted. Products leading to 50% inhibition of AChE were then submitted to dose-response experiments. Serial dilutions of the products were prepared (100, 50, 25, 12.5, 6.25, 3.125, 1.5625, and 0.78125 µg/mL). Enzymatic assay was performed according to the same procedure with 10 µL of each concentration added. IC50 values (concentration leading to 50% inhibition of enzymatic activity) were graphically determined by plotting the percentage of inhibition against the compound concentrations.
Each assay was performed in triplicate and results are expressed as mean values ± SD.

[7] = Degradation of 11-epi-fistularin-3 in acetonitrile/water (+0.1% HCOOH); format: physicochemical; conditions: acetonitrile/water (+0.1% HCOOH) 1/1, room temperature, two weeks; HPLC analysis
Text: We then decided to manage the degradation process of epi-fistularin-3 (1) in a less drastic conditions by dissolving it in a mixture of acetonitrile/water (+0.1% HCOOH) 1/1 and stirring at room temperature for two weeks. The reaction mixture was then dried under vacuum and chromatographed.
The reaction mixture was then dried under vacuum and submitted for HPLC analysis.

[8] = tested at 0.01, 0.1 and 1 µg/mL, 30 °C, OD 620 nm
[9] = tested at 0.01, 0.1 and 1 µg/mL, 30 °C, 48 h, OD 620 nm
[10] = mean ± SD, triplicate, 30 min at 25 °C, absorbance 405 nm, read-out: Acetylcholinesterase IC50
[11] = tested at 0.01, 0.1 and 1 µg/mL, 30 °C, 48 h, OD 620 nm, read-out: MIC Vibrio aesturianus
[12] = tested at 0.01, 0.1 and 1 µg/mL, 30 °C, 48 h, OD 620 nm, read-out: MIC Escherichia coli

| Molecule | MIC Roseobacter littoralis [1, 8] [µg/mL] | MIC Vibrio aesturianus [3, 9] [µg/mL] | MIC Halomonas aquamarina [4, 8] | MIC Escherichia coli [5, 9] [µg/mL] | IC50 [6, 10] [µM] | MIC [1, 8] [µM] | MIC [3, 11] [µM] | MIC [4, 8] [µM] | MIC [5, 12] [µM] | other results |
| --- | --- | --- | --- | --- | --- | --- | --- | --- | --- | --- |
| COC1=C(Br)C(O)C2(C=C1Br)CC(C(=O)NCCCOc1c(Br)cc(CCNC(=O)C3=NOC4(C=C(Br)C(OC)=C(Br)C4O)C3)cc1Br)=NO2 (stereo not drawn) [11,17-dideoxyfistularin (14), 11,17-dideoxyfistularin-3] | >1 | >1 | 0,01 µg/mL | >1 | 10 ± 0.3 |  |  |  |  | DNMT1 activity, percentage of control [2]: statistically significant decrease; MIC toward Halomonas aquamarina [4]: 0.01 µg/mL (≈ 0.00924 µM) |
| COC1=C(Br)[C@H](O)[C@@]2(C=C1Br)CC(C(=O)NCCCOc1c(Br)cc(C(O)CNC(=O)C3=NO[C@]4(C=C(Br)C(OC)=C(Br)[C@@H]4O)C3)cc1Br)=NO2 (stereo partly drawn) [11-deoxyfistularin-3 (13), 11-deoxyfistularin-3] | >1 | >1 | 0,01 µg/mL | >1 | > 10 |  |  |  |  | MIC toward Halomonas aquamarina [4]: 0.01 µg/mL (≈ 0.00911 µM) |
| COC1=C(Br)[C@H](O)[C@@]2(C=C1Br)CC(C(=O)NCCC(O)CNC(=O)C1=NO[C@]3(C=C(Br)C(OC)=C(Br)[C@@H]3O)C1)=NO2 (stereo partly drawn) [11-hydroxyaerothionin (15), 11-hydroxy-aerothionin] | >1 | >1 | 0,01 µg/mL | >1 | 10 ± 0.3 |  |  |  |  |  |
| COC1=C(Br)[C@H](O)[C@@]2(C=C1Br)CC(C(=O)NCCc1cc(Br)c(OC[C@H](O)CNC(=O)C3=NO[C@]4(C=C(Br)C(OC)=C(Br)[C@@H]4O)C3)c(Br)c1)=NO2 [17-deoxy-11-epi-fistularin-3 (10), 17-deoxy-11(R)-epi-fistularin-3] |  |  |  |  | > 10 | > 1 | > 1 | 0.01 (≈ 0.011 µg/mL) | > 1 |  |
| COC1=C(Br)[C@H](O)[C@@]2(C=C1Br)CC(C(=O)NCC(=O)c1cc(Br)c(OC[C@H](O)CNC(=O)C3=NO[C@]4(C=C(Br)C(OC)=C(Br)[C@@H]4O)C3)c(Br)c1)=NO2 [17-oxo-11-epi-fistularin-3 (8), 17-oxo-11-epi-fistularin-3] |  |  |  |  |  |  |  |  |  | MIC [1]: > 1 µM; MIC ([3]; 48 h, read-out: MIC Vibrio aesturianus): 0.01 µM; MIC [4]: > 1 µM; MIC ([5]; 48 h, read-out: MIC Escherichia coli): > 1 µM; IC50 [6]: > 10 µM |
| COC1=C(Br)[C@H](O)[C@@]2(C=C1Br)CC(C(=O)NC[C@@H](O)COc1c(Br)cc([C@H](O)CNC(=O)C3=NO[C@]4(C=C(Br)C(OC)=C(Br)[C@@H]4O)C3)cc1Br)=NO2 [epi-fistularin-3 (1), 11-epi-fistularin-3] |  |  |  |  | > 10 | > 1 | > 1 | > 1 | > 1 | remaining activity at 50 µM ([2]; read-out: DNMT1 activity, percentage of control): ~70%; stability in acidic aqueous acetonitrile (degradation products) [7]: gave agelorin A, agelorin B, and the compounds 2–7 |
| COC1=C(Br)[C@H](O)[C@@]2(C=C1Br)CC(C(=O)NC[C@@H](O)COc1c(Br)cc([C@H](O)CNC(=O)/C(Cc3cc(Br)c(OC)c(Br)c3O)=N/O)cc1Br)=NO2 [suberein-1 (2), suberein-1] |  |  |  |  | > 10 | 1 (≈ 1.11 µg/mL) | 0.01 | > 1 | > 1 |  |
| COC1=C(Br)[C@H](O)[C@@]2(C=C1Br)CC(C(=O)NC[C@@H](O)c1cc(Br)c(OC[C@H](O)CNC(=O)/C(Cc3cc(Br)c(OC)c(Br)c3O)=N/O)c(Br)c1)=NO2 [suberein-2 (3), suberein-2] |  |  |  |  | > 10 | > 1 | 0.01 | > 1 | 0.01 | MIC ([3]; the lowest concentration tested, read-out: MIC against V. aesturianus): 0.01 µg/mL; MIC ([5]; the lowest concentration tested, read-out: MIC against E. coli): 0.01 µg/mL |
| agelorin A [agelorin A (11)] | 0.1 | 0.1 | 0.1 µg/mL |  |  |  |  |  |  |  |
| agelorin B [agelorin B (12)] | >1 | >1 | >1 µg/mL | >1 |  |  |  |  |  |  |
